Assay results reported in ChEMBL document CHEMBL3045419, “Synthesis and Acaricidal Activity of N-(3-Pyridylmethyl)pyrazolecarboxamide Derivatives” (1997).

How the values were obtained:
Assay type in all cases: functional
Tetranychus urticae [1] = experiment: Acaricidal against Tetranychus urticae (two-spotted spider mite) assessed as mortality at 3.1 ppm
Tetranychus urticae [2] = experiment: Acaricidal against Tetranychus urticae (two-spotted spider mite) assessed as mortality at 12.5 ppm
Tetranychus urticae [3] = experiment: Acaricidal against Tetranychus urticae (two-spotted spider mite) assessed as mortality at 50 ppm
Tetranychus urticae [4] = experiment: Acaricidal against Tetranychus urticae (two-spotted spider mite) assessed as mortality at 200 ppm
Tetranychus urticae [5] = experiment: Acaricidal against Tetranychus urticae (two-spotted spider mite) assessed as mortality at 500 ppm

Row | Compound | Activity (Tetranychus urticae [1]) [%] | Activity (Tetranychus urticae [2]) [%] | Activity (Tetranychus urticae [3]) [%] | Activity (Tetranychus urticae [4]) [%] | Activity (Tetranychus urticae [5]) [%]
1 | CCc1nn(C)c(C(=O)NCc2ccc(OCC(F)(F)C(F)(F)C(F)(F)F)nc2)c1Cl | 80 | 100 | 100 | 100 | 100
2 | CCCCOc1ccc(CNC(=O)c2c(Cl)c(CC)nn2C)cn1 | 30 | 30 | 80 | 100 | 100
3 | CCc1nn(C)c(C(=O)NCc2cnccc2C(C)(C)C)c1Cl | 100 | 100 | 100 | 100 | 100
4 | CCc1nn(C)c(C(=O)NCc2ccc(OC(C)C(F)(F)F)nc2)c1Cl (stereo not given) | 30 | 100 | 100 | 100 | 100
5 | CCc1nn(C)c(C(=O)NCc2ccc(OC(C)C)nc2)c1Cl | 0 | 30 | 80 | 100 | 100
6 | CCCCCc1ccc(CNC(=O)c2c(Cl)c(CC)nn2C)cn1 | 0 | 100 | 100 | 100 | 100
7 | CCc1nn(C)c(C(=O)NCc2cccnc2)c1Cl | 0 | 0 | 0 | 0 | 30
8 | CCc1nn(C)c(C(=O)NCc2ccc(OCC(F)(F)C(F)F)nc2)c1Cl | 30 | 80 | 100 | 100 | 100
9 | CCCc1ccc(CNC(=O)c2c(Cl)c(CC)nn2C)cn1 | 0 | 0 | 30 | 80 | 100
10 | CCCOc1ccc(CNC(=O)c2c(Cl)c(CC)nn2C)cn1 | 0 | 0 | 30 | 30 | 80
11 | CCc1nn(C)c(C(=O)NCc2ccc(CC(C)C)nc2)c1Cl | 0 | 30 | 100 | 100 | 100
12 | CCc1nn(C)c(C(=O)NCc2ccc(OCC(F)(F)C(F)(F)F)nc2)c1Cl | 30 | 80 | 100 | 100 | 100
13 | CCc1nn(C)c(C(=O)NCc2ccc(CC(C)(C)C)nc2)c1Cl | 30 | 100 | 100 | 100 | 100
14 | CCCCc1ccc(CNC(=O)c2c(Cl)c(CC)nn2C)cn1 | 0 | 30 | 100 | 100 | 100
15 | CCc1nn(C)c(C(=O)NCc2ccc(C(C)(C)C)nc2)c1Cl | 80 | 100 | 100 | 100 | 100
16 | CCc1nn(C)c(C(=O)NCc2ccc(C(C)C)nc2)c1Cl | 0 | 30 | 100 | 100 | 100
17 | CCc1nn(C)c(C(=O)NCc2ccc(OCCCC(F)(F)F)nc2)c1Cl | 30 | 80 | 100 | 100 | 100
